{"source": "patent US20180273531A1", "about": "“PYRIMIDINE COMPOUND AND MEDICAL USE THEREOF” (Japan Tobacco Inc., priority 2004, published 2018)"}
{"system": "p27 protein", "assay": "p27 protein induction test (Western blotting)", "type": "cell-based", "details": "test substance (0.1 1M), 24 hrs, ACHN cells or HT-29 cells, compared to DMSO, n=2", "summary_of_the_method": "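ACHN or HT-29 cells grown 24 h, then treated with test substance at […] (DMSO) for 24 h. Lysates normalised by protein content and probed by Western blot with anti-p27 antibody. Band density quantified by densitometer against DMSO control, n=2 averaged.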"}
{"smiles": "Cc1c(=O)n(C)c(Nc2ccc(I)cc2F)c2c(=O)n(C3CC3)c(=O)n(-c3cccc(N4CCN(C)CC4=O)c3)c12", "note": "[Example 4-122]", "fold induction at 0.1 µM": "≥ 1.5"}
{"smiles": "Cc1c(=O)n(C)c(Nc2ccc(I)cc2F)c2c(=O)n(C3CC3)c(=O)n(-c3ccc4c(c3)NC(=O)CC4)c12", "note": "[Example 4-123]", "fold induction at 0.1 µM": "≥ 1.5"}
{"smiles": "Cc1c(=O)n(C)c(Nc2ccc(I)cc2F)c2c(=O)n(C3CC3)c(=O)n(-c3cccc(N4CCNC4=O)c3)c12", "note": "[Example 4-124]", "fold induction at 0.1 µM": "≥ 1.5"}
{"smiles": "Cc1c(=O)n(C)c(Nc2ccc(I)cc2F)c2c(=O)n(C3CC3)c(=O)n(-c3cccc(N4CCOC4=O)c3)c12", "note": "[Example 4-125]", "fold induction at 0.1 µM": "≥ 1.5"}
{"smiles": "Cc1c(=O)n(C)c(Nc2ccc(I)cc2F)c2c(=O)n(C3CC3)c(=O)n(-c3cccc(S(N)(=O)=O)c3)c12", "note": "[Example 4-127]", "fold induction at 0.1 µM": "≥ 1.5"}
{"smiles": "Cc1c(=O)n(C)c(Nc2ccc(I)cc2F)c2c(=O)n(C3CC3)c(=O)n(-c3ccc4c(c3)NC(=O)C4(C)C)c12", "note": "[Example 4-128]", "fold induction at 0.1 µM": "≥ 1.5"}
{"system": "Renal cancer cell line ACHN cell", "assay": "Growth inhibitory effect against cancer cell lines (3H-thymidine uptake), ACHN", "type": "cell-based", "details": "Homo sapiens, ACHN", "summary_of_the_method": "(§1)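 Cells seeded at 1.0×10^4/well, grown 24 hrs, then exposed to compound in DMSO for 18 hrs before 6 hrs pulse with ^3H-thymidine (0.25 μCi/well). Harvested cell-incorporated radioactivity counted; IC50 is the concentration halving uptake versus DMSO control, triplicate.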", "units": {"IC50": "µM"}}
{"smiles": "Cc1c(=O)n(C)c(Nc2ccc(I)cc2F)c2c(=O)n(C3CC3)c(=O)n(-c3cccc(N4CCN(C)CC4=O)c3)c12", "note": "[Example 4-122]", "IC50": "0.01 to 0.1"}
{"smiles": "Cc1c(=O)n(C)c(Nc2ccc(I)cc2F)c2c(=O)n(C3CC3)c(=O)n(-c3ccc4c(c3)NC(=O)CC4)c12", "note": "[Example 4-123]", "IC50": "0.1 to 1"}
{"smiles": "Cc1c(=O)n(C)c(Nc2ccc(I)cc2F)c2c(=O)n(C3CC3)c(=O)n(-c3cccc(N4CCNC4=O)c3)c12", "note": "[Example 4-124]", "IC50": "0.01 to 0.1"}
{"smiles": "Cc1c(=O)n(C)c(Nc2ccc(I)cc2F)c2c(=O)n(C3CC3)c(=O)n(-c3cccc(N4CCOC4=O)c3)c12", "note": "[Example 4-125]", "IC50": "< 0.01"}
{"smiles": "Cc1c(=O)n(C)c(Nc2ccc(I)cc2F)c2c(=O)n(C3CC3)c(=O)n(-c3cccc(S(N)(=O)=O)c3)c12", "note": "[Example 4-127]", "IC50": "0.01 to 0.1"}
{"smiles": "Cc1c(=O)n(C)c(Nc2ccc(I)cc2F)c2c(=O)n(C3CC3)c(=O)n(-c3ccc4c(c3)NC(=O)C4(C)C)c12", "note": "[Example 4-128]", "IC50": "0.01 to 0.1"}
{"system": "ACHN cells or HT-29 cells", "assay": "Cell cycle analysis (flow cytometry, CycleTEST PLUS)", "type": "cell-based", "details": "test substance less than 10 μM, 24 hrs, compared to DMSO, n=2, read-out: CELL RATIO OF G0/G1 PHASE", "method": "ACHN cells or HT-29 cells were cultured in a 6 well plate at 2.5×10^5 cells/1.8 mL/well for 24 hrs, then a test substance (less than 10 μM) dissolved in DMSO was added. After 24 hrs, cells were detached using trypsin-EDTA and the DNA content of single cell was analyzed by flow cytometry method using a CycleTEST PLUS (BECKTON DICKINSON) kit, and the proportion of the cells in the G0/G1 phase·S phase·G2/M phase was calculated. As a control, DMSO was used and the test was performed with n=2."}
{"smiles": "Cn1c(=O)cc(Nc2ccc(Cl)cc2)c2c(=O)n(-c3ccccc3)c(=O)n(-c3ccccc3)c21", "note": "[Example 1-2]", "fold induction": "≥ 1.2"}
{"smiles": "Cn1c(=O)cc(Nc2ccccc2Cl)c2c(=O)n(-c3ccccc3)c(=O)n(-c3ccccc3)c21", "note": "[Example 1-4]", "fold induction": "≥ 1.2"}
{"smiles": "Cc1ccc(Nc2cc(=O)n(C)c3c2c(=O)n(-c2ccccc2)c(=O)n3-c2ccccc2)cc1", "note": "[Example 1-6]", "fold induction": "≥ 1.2"}
{"system": "colorectal cancer cell line HT-29 cells", "assay": "Growth inhibitory effect against cancer cell lines (3H-thymidine uptake), HT-29", "type": "cell-based", "details": "Homo sapiens, HT-29, inhibition of 3H-thymidine uptake; test substance 18 hrs, then 3H-thymidine 6 hrs; triplicate", "summary_of_the_method": "as §1", "units": {"IC50": "µM"}}
{"smiles": "Cn1c(=O)cc(Nc2ccc(Cl)cc2)c2c(=O)n(-c3ccccc3)c(=O)n(-c3ccccc3)c21", "note": "[Example 1-2]", "IC50": "0.1 to 1"}
{"smiles": "Cc1c(=O)n(C)c(Nc2ccc(I)cc2F)c2c(=O)n(C3CC3)c(=O)n(-c3cccc(N4CCN(C)CC4=O)c3)c12", "note": "[Example 4-122]", "IC50": "< 0.01"}
{"smiles": "Cc1c(=O)n(C)c(Nc2ccc(I)cc2F)c2c(=O)n(C3CC3)c(=O)n(-c3ccc4c(c3)NC(=O)CC4)c12", "note": "[Example 4-123]", "IC50": "< 0.01"}
{"smiles": "Cc1c(=O)n(C)c(Nc2ccc(I)cc2F)c2c(=O)n(C3CC3)c(=O)n(-c3cccc(N4CCNC4=O)c3)c12", "note": "[Example 4-124]", "IC50": "< 0.01"}
{"smiles": "Cc1c(=O)n(C)c(Nc2ccc(I)cc2F)c2c(=O)n(C3CC3)c(=O)n(-c3cccc(N4CCOC4=O)c3)c12", "note": "[Example 4-125]", "IC50": "< 0.01"}
{"smiles": "Cc1c(=O)n(C)c(Nc2ccc(I)cc2F)c2c(=O)n(C3CC3)c(=O)n(-c3cccc(S(N)(=O)=O)c3)c12", "note": "[Example 4-127]", "IC50": "< 0.01"}
{"smiles": "Cc1c(=O)n(C)c(Nc2ccc(I)cc2F)c2c(=O)n(C3CC3)c(=O)n(-c3ccc4c(c3)NC(=O)C4(C)C)c12", "note": "[Example 4-128]", "IC50": "< 0.01"}
{"system": "p15 protein", "assay": "Evaluation of p15 induction activity (Western blotting)", "type": "cell-based", "details": "test substance 0.1 μM, 24 hrs, ACHN cells or HT-29 cells, compared to DMSO, n=2", "summary_of_the_method": "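p15 protein quantified by densitometry of anti-p15 Western blots (10 μg protein per lane, mean of n=2). Samples came from HT-29 or ACHN cells given 0.1 μM compound for 24 h after 24 h plating, with DMSO as control.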"}
{"smiles": "Cn1c(=O)cc(Nc2ccccc2Cl)c2c(=O)n(-c3ccccc3)c(=O)n(-c3ccccc3)c21", "note": "[Example 1-4]", "fold induction at 0.1 µM": "≥ 1.5"}
{"smiles": "Cc1ccc(Nc2cc(=O)n(C)c3c2c(=O)n(-c2ccccc2)c(=O)n3-c2ccccc2)cc1", "note": "[Example 1-6]", "fold induction at 0.1 µM": "≥ 1.5"}
{"smiles": "Cc1c(=O)n(C)c(Nc2ccc(I)cc2F)c2c(=O)n(C3CC3)c(=O)n(-c3cccc(N4CCN(C)CC4=O)c3)c12", "note": "[Example 4-122]", "fold induction at 0.1 µM": "≥ 1.5"}
{"smiles": "Cc1c(=O)n(C)c(Nc2ccc(I)cc2F)c2c(=O)n(C3CC3)c(=O)n(-c3ccc4c(c3)NC(=O)CC4)c12", "note": "[Example 4-123]", "fold induction at 0.1 µM": "≥ 1.5"}
{"smiles": "Cc1c(=O)n(C)c(Nc2ccc(I)cc2F)c2c(=O)n(C3CC3)c(=O)n(-c3cccc(N4CCNC4=O)c3)c12", "note": "[Example 4-124]", "fold induction at 0.1 µM": "≥ 1.5"}
{"smiles": "Cc1c(=O)n(C)c(Nc2ccc(I)cc2F)c2c(=O)n(C3CC3)c(=O)n(-c3cccc(N4CCOC4=O)c3)c12", "note": "[Example 4-125]", "fold induction at 0.1 µM": "≥ 1.5"}
{"smiles": "Cc1c(=O)n(C)c(Nc2ccc(I)cc2F)c2c(=O)n(C3CC3)c(=O)n(-c3cccc(S(N)(=O)=O)c3)c12", "note": "[Example 4-127]", "fold induction at 0.1 µM": "≥ 1.5"}
{"smiles": "Cc1c(=O)n(C)c(Nc2ccc(I)cc2F)c2c(=O)n(C3CC3)c(=O)n(-c3ccc4c(c3)NC(=O)C4(C)C)c12", "note": "[Example 4-128]", "fold induction at 0.1 µM": "≥ 1.5"}
